What was measured:
Assay type in all cases: in vivo
[1] = system: Heliothis virescens (Tobacco Budworm); assay: Heliothis virescens egg/larval test on artificial diet; settings: application rate of 200 ppm, eggs 0-24 h old, 5 days after infestation, read-out: egg or larval mortality
Experimental: Heliothis virescens (Tobacco Budworm):
Eggs (0-24 h old) were placed in 24-well microtiter plates on artificial diet and treated with aqueous test solutions prepared from 10,000 ppm DMSO stock solutions by pipetting. The samples were assessed for egg and larval mortality 5 days after infestation.

[2] = system: Spodoptera Littoralis (Egyptian Cotton Leaf Worm); assay: Spodoptera littoralis cotton leaf disc spray test; settings: foliar, 72 h, application rate of 200 ppm, L1 larvae, 3 days after infestation, read-out: control (at least one of mortality, anti-feedant effect, growth inhibition)
Experimental: Spodoptera Littoralis (Egyptian Cotton Leaf Worm)
Cotton leaf discs were placed on agar in 24-well microtiter plates and sprayed with aqueous test solutions prepared from 10,000 ppm DMSO stock solutions. After drying the leaf discs were infested with five L1 larvae. The samples were assessed for mortality, anti-feedant effect, and growth inhibition in comparison to untreated samples 3 days after infestation. Control of Spodoptera littoralis by a test sample is when at least one of mortality, anti-feedant effect, and growth inhibition is higher than the untreated sample.

[3] = system: Plutella xylostella (Diamond Back Moth); assay: Plutella xylostella L2 larvae test on artificial diet; settings: 120 h, application rate of 200 ppm, 5 days after infestation, read-out: effect in at least one of the two categories (mortality or growth inhibition)
Experimental: Plutella xylostella (Diamond Back Moth):
(§1) 24-well microtiter plates with artificial diet were treated with aqueous test solutions prepared from 10,000 ppm DMSO stock solutions by pipetting. After drying, the plates were infested with L2 larvae (10 to 15 per well). The samples were assessed for mortality and growth inhibition in comparison to untreated samples 5 days after infestation.

[4] = system: Diabrotica balteata (Corn Root Worm); assay: Diabrotica balteata L2 larvae test on artificial diet; settings: 120 h, application rate of 200 ppm, 5 days after infestation, read-out: effect in at least one of the two categories (mortality or growth inhibition)
Experimental: Diabrotica balteata (Corn Root Worm):
as §1, with “(6” for “(10”, “10” for “15”

[5] = system: Myzus persicae (Green Peach Aphid); assay: Myzus persicae sucrose solution feeding test; settings: 120 h, test rate of 12 ppm, 5 days after infestation
Experimental: Myzus persicae (Green Peach Aphid)
Test compounds from 10,000 ppm DMSO stock solutions were applied by pipette into 24-well microtiter plates and mixed with sucrose solution. The plates were closed with a stretched Parafilm. A plastic stencil with 24 holes was placed onto the plate and infested pea seedlings were placed directly on the Parafilm. The infested plate was closed with a gel blotting paper and another plastic stencil and then turned upside down. The samples were assessed for mortality 5 days after infestation.

[6] = system: Thrips tabaci (Onion Thrips); assay: Thrips tabaci sunflower leaf disc spray test; settings: foliar, 144 h, application rate of 200 ppm, population of mixed ages, 6 days after infestation
Experimental: Thrips tabaci (Onion Thrips):
(§2) Sunflower leaf discs were placed on agar in 24-well microtiter plates and sprayed with aqueous test solutions prepared from 10,000 ppm DMSO stock solutions. After drying the leaf discs were infested with a thrips population of mixed ages. The samples were assessed for mortality 6 days after infestation.

[7] = system: Tetranychus urticae (Two-Spotted Spider Mite); assay: Tetranychus urticae bean leaf disc spray test; settings: foliar, 192 h, application rate of 200 ppm, 8 days after infestation, read-out: mortality on mixed population (mobile stages)
Experimental: Tetranychus urticae (Two-Spotted Spider Mite):
as §2, with “Bean” for “Sunflower”, “discs” for “discs were placed”, “were” for “and”, “mite” for “thrips”, “on mixed population (mobile stages) 8” for “6”

O=C(Nc1cccc(-c2ccc3c(c2)CC(c2cc(Cl)cc(Cl)c2)(C(F)(F)F)O3)c1F)C1CC1 (stereo not shown) [Compound 42, N-(3-(2-(3,5-dichlorophenyl)-2-(trifluoromethyl)-2,3-dihydrobenzofuran-5-yl)-2-fluorophenyl)cyclopropanecarboxamide]
≥ 80%: mortality at 200 ppm [1] | percent control (mortality, anti-feedant effect or growth inhibition) at 200 ppm [2]

CCC(=O)Nc1ccnc(-c2cc3c(cc2Cl)OC(c2cc(Cl)cc(Cl)c2)(C(F)(F)F)C3)c1 (stereo not shown) [Compound 136, N-[2-[6-chloro-2-(3,5-dichlorophenyl)-2-(trifluoromethyl)-3H-benzofuran-5-yl]-4-pyridyl]propanamide]
≥ 80%: mortality at 200 ppm [1] | percent control (mortality, anti-feedant effect or growth inhibition) at 200 ppm [2] | percent effect (mortality or growth inhibition) at 200 ppm [3]

O=C(Nc1cc(-c2ccc3c(c2)CC(c2cc(Cl)cc(Cl)c2)(C(F)(F)F)O3)ccn1)C1CC1 (stereo not shown) [Compound 137, N-[4-[2-(3,5-dichlorophenyl)-2-(trifluoromethyl)-3H-benzofuran-5-yl]-2-pyridyl]cyclopropanecarboxamide]
≥ 80%: mortality at 200 ppm [1] | percent effect (mortality or growth inhibition) at 200 ppm [4] | percent control (mortality, anti-feedant effect or growth inhibition) at 200 ppm [2] | percent effect (mortality or growth inhibition) at 200 ppm [3]

O=C(Nc1cccc(-c2ccc3c(c2)CC(c2cc(Cl)cc(Cl)c2)(C(F)(F)F)O3)c1)C1CC1 (stereo not shown) [Compound 141, N-(3-(2-(3,5-dichlorophenyl)-2-(trifluoromethyl)-2,3-dihydrobenzofuran-5-yl)phenyl)cyclopropanecarboxamide]
≥ 80%: mortality at 200 ppm [1] | percent effect (mortality or growth inhibition) at 200 ppm [4] | percent control (mortality, anti-feedant effect or growth inhibition) at 200 ppm [2] | percent effect (mortality or growth inhibition) at 200 ppm [3] | mortality at 12 ppm [5] | mortality at 200 ppm [6]

O=C(Nc1cccc(-c2ccc3c(c2)CC(c2cccc(C(F)(F)F)c2)(C(F)(F)F)O3)c1)C1CC1 (stereo not shown) [Compound 182, N-(3-(2-(trifluoromethyl)-2-(3-(trifluoromethyl)phenyl)-2,3-dihydrobenzofuran-5-yl)phenyl)cyclopropanecarboxamide]
≥ 80%: mortality at 200 ppm [1] | percent control (mortality, anti-feedant effect or growth inhibition) at 200 ppm [2] | percent effect (mortality or growth inhibition) at 200 ppm [3]

CCC(=O)Nc1cc(-c2ccc3c(c2)CC(c2cc(Cl)cc(Cl)c2)(C(F)(F)F)O3)ccc1C#N (stereo not shown) [Compound 198, N-[2-cyano-5-[2-(3,5-dichlorophenyl)-2-(trifluoromethyl)-3H-benzofuran-5-yl]phenyl]propanamide]
≥ 80%: mortality at 200 ppm [1] | percent effect (mortality or growth inhibition) at 200 ppm [4] | percent control (mortality, anti-feedant effect or growth inhibition) at 200 ppm [2] | percent effect (mortality or growth inhibition) at 200 ppm [3] | mortality at 200 ppm [7] | mortality at 12 ppm [5] | mortality at 200 ppm [6]

O=C1CCCN1c1cccc(-c2ccc3c(c2)CC(c2cc(Cl)cc(Cl)c2)(C(F)(F)F)O3)c1 (stereo not shown) [Compound 254, 1-{3-[2-(3,5-Dichloro-phenyl)-2-trifluoromethyl-2,3-dihydro-benzofuran-5-yl]-phenyl}-pyrrolidin-2-one]
≥ 80%: percent effect (mortality or growth inhibition) at 200 ppm [3]

N#Cc1ccc(-c2ccc3c(c2)CC(c2cc(Cl)cc(Cl)c2)(C(F)(F)F)O3)cc1N1CCCC1=O (stereo not shown) [Compound 261, 4-[2-(3,5-Dichloro-phenyl)-2-trifluoromethyl-2,3-dihydro-benzofuran-5-yl]-2-(2-oxo-pyrrolidin-1-yl)-benzonitrile]
≥ 80%: percent control (mortality, anti-feedant effect or growth inhibition) at 200 ppm [2] | percent effect (mortality or growth inhibition) at 200 ppm [3]

CCC(=O)Nc1cc(-c2ccc3c(c2)CC(c2cc(Cl)cc(Cl)c2)(C(F)(F)F)S3)ccc1C#N (stereo not shown) [Compound 267, N-{2-Cyano-5-[2-(3,5-dichloro-phenyl)-2-trifluoromethyl-2,3-dihydro-benzo[b]thiophen-5-yl]-phenyl}-propionamide]
≥ 80%: percent control (mortality, anti-feedant effect or growth inhibition) at 200 ppm [2] | percent effect (mortality or growth inhibition) at 200 ppm [3]

CCC(=O)Nc1cccc(-c2ccc3c(c2)CC(c2cc(Cl)cc(Cl)c2)(C(F)(F)F)S3)c1 (stereo not shown) [Compound 268, N-[3-[2-(3,5-dichlorophenyl)-2-(trifluoromethyl)-3H-benzothiophen-5-yl]phenyl]propanamide]
≥ 80%: percent control (mortality, anti-feedant effect or growth inhibition) at 200 ppm [2] | percent effect (mortality or growth inhibition) at 200 ppm [3] | mortality at 12 ppm [5] | mortality at 200 ppm [6]

CCC(=O)Nc1cccc(-c2ccc3c(c2)CC(c2cc(Cl)cc(Cl)c2)(C(F)(F)F)C3=O)c1 (stereo not shown) [Compound 269, N-{3-[2-(3,5-Dichloro-phenyl)-1-oxo-2-trifluoromethyl-indan-5-yl]-phenyl}-propionamide]
≥ 80%: mortality at 200 ppm [1] | percent effect (mortality or growth inhibition) at 200 ppm [4] | percent control (mortality, anti-feedant effect or growth inhibition) at 200 ppm [2] | percent effect (mortality or growth inhibition) at 200 ppm [3] | mortality at 200 ppm [6]

CCC(=O)Nc1cccc(-c2ccc3c(c2)CC(c2cc(Cl)cc(Cl)c2)(C(F)(F)F)C3O)c1 (stereo not shown) [Compound 270, N-{3-[2-(3,5-Dichloro-phenyl)-1-hydroxy-2-trifluoromethyl-indan-5-yl]-phenyl}-propionamide]
≥ 80%: mortality at 200 ppm [1] | percent effect (mortality or growth inhibition) at 200 ppm [4] | percent control (mortality, anti-feedant effect or growth inhibition) at 200 ppm [2] | percent effect (mortality or growth inhibition) at 200 ppm [3]

— US9598389B2, “Dihydrobenzofuran derivatives as insecticidal compounds” (SYNGENTA PARTICIPATIONS AG, priority 2013, dated 2017)
